Test results as given in PubChem BioAssay AID2060501 (Molecular Pharmacology Branch, DTP, NCI, 2025).

Tested on: 282377-053-R-J1-PDC complex spheroids, viability
Assay: Anticancer human tumor 282377-053-R-J1-PDC patient-derived colon adenocarcinoma cell line growth inhibition [GQUAD]
Conditions: for IC50: curve of first compound; for viability, T/C: stronger effect = lower value
From the text: DNA G-quadruplex Stabilizer Agents in Combinations in Complex Spheroids
A high-throughput screen of multi-cell type tumor spheroids was designed to identify active combinations of DNA G-quadruplex stabilizer agents and targeted small molecules. Complex spheroids include a stromal component modeled by human endothelial cells (HUVEC) and fibroblasts modeled by human mesenchymal stem cells (MSCs). The concentration ranges selected for each drug and investigational agent were based upon clinically achievable concentrations if the clinical Cmax of the agent was known.
Compounds. The drugs and investigational agents: pidnarulex (CX-5461; NSC782164), APTO-253 (NSC789042), BRACO-19 (NSC847499), peposertib (NSC802822), ceralasertib (NSC780249), elimusertib (NSC800525), camonsertib (NSC841442), AZD-1390 (NSC803789), olaparib (NSC753686), talazoparib (NSC767125), ART-558 (NSC835418), sotorasib (NSC818433), MRTX-1133 (NSC836407), SN-38 (NSC673596), topotecan (NSC609699), etoposide (NSC141540), doxorubicin (NSC123127), gemcitabine (NSC613327), 5-fluorouracil (NSC19893), paclitaxel (NSC125973), vemurafenib (NSC761431), panobinostat (NSC761190), R-306465 (JNJ-16241199; NSC773264), adavosertib (NSC754352), TP-3654 (NSC805149), carboplatin (NSC241240), KSQ-4279 (NSC840948), and staurosporine (NSC755774) were obtained from the National Cancer Institute (NCI) Developmental Therapeutics Program Chemical Repository (34). The FDA-approved anticancer drug set is available from the NCI Developmental Therapeutics Program. […] The stock solutions were prepared in dimethyl sulfoxide (DMSO, Sigma-Aldrich, St. Louis, MO, cat. D2650) at 800-fold the tested concentration and stored at -70 degrees C prior to their use. All drugs and investigational agents were tested over a range starting from a high concentration at or near the clinical Cmax and decreasing in half-log increments. If the clinical Cmax for an agent had not been determined, the highest concentration tested was 10 microM.
2.3 Cell Culture. All cells were maintained in an incubator at 37 degrees C and 5% CO2 with 95% humidity. The PDC lines were cultured according to standard operating procedures established by the NCI PDMR. All PDCs were thawed and cultured in Matrigel-coated flasks prepared with a working solution of 1X Ham's F-12 nutrient mix, without supplementation (Invitrogen, cat. 11765054), 100 U/mL penicillin-streptomycin (Invitrogen, cat. 15140122), and 2.5% Matrigel (Corning Inc., cat. 354248) for the first three passages. The 857933-349-R-J2-PDC line was cultured in 6C/Colon 1B media, which includes advanced DMEM/F-12 (Thermo Fisher Scientific, cat. 12634028), 10 mM HEPES (Thermo Fisher Scientific, cat. 15630080), 1X GlutaMAX supplement (Thermo Fisher Scientific, cat. 35050061), 0.1 mg/mL primocin (InvivoGen, cat. ant-pm-2), 10% defined fetal bovine serum, heat inactivated (HyClone Laboratories Inc., cat. SH30070.03HI), 50% L-WRN conditioned media (ATCC, cat. CRL-3276), 1.25 mM N-Acetyl-L-cysteine (Sigma-Aldrich, cat. A9165), 10 mM nicotinamide (Sigma-Aldrich, cat. N0636), 1X B-27 supplement (Thermo Fisher Scientific, cat. 17504044), 1X N-2 supplement (Thermo Fisher Scientific, cat. 17502048), 10 microM Y-27632 dihydrochloride (Tocris Bioscience, cat. 1254), and 50 ng/mL human EGF recombinant protein (Thermo Fisher Scientific, cat. PHG0311). The 485176-168-R4-J1-PDC line was cultured in Panc media, which includes all 6C/Colon 1B media components plus 100 ng/mL human FGF-10 (Thermo Fisher Scientific, cat. 100-26), 500 nM SB-431542 (Selleckchem, cat. S1067), and gastrin (Tocris, cat. 3006).
[…]

[1] = second compound 0.0316 µM, first compound 0.0316 µM
[2] = second compound 0.0316 µM, first compound 0.1 µM
[3] = second compound 0.0316 µM, first compound 0.316 µM
[4] = second compound 0.0316 µM, first compound 1 µM
[5] = second compound 0.0316 µM, first compound 3.16 µM
[6] = second compound 0.0316 µM, first compound 10 µM
[7] = second compound 0.1 µM, first compound 0.0316 µM
[8] = second compound 0.1 µM, first compound 0.1 µM
[9] = second compound 0.1 µM, first compound 0.316 µM
[10] = second compound 0.1 µM, first compound 1 µM
[11] = second compound 0.1 µM, first compound 3.16 µM
[12] = second compound 0.1 µM, first compound 10 µM
[13] = second compound 0.316 µM, first compound 0.0316 µM
[14] = second compound 0.316 µM, first compound 0.1 µM
[15] = second compound 0.316 µM, first compound 0.316 µM
[16] = second compound 0.316 µM, first compound 1 µM
[17] = second compound 0.316 µM, first compound 3.16 µM
[18] = second compound 0.316 µM, first compound 10 µM
[19] = second compound 1 µM, first compound 0.0316 µM
[20] = second compound 1 µM, first compound 0.1 µM
[21] = second compound 1 µM, first compound 0.316 µM
[22] = second compound 1 µM, first compound 1 µM
[23] = second compound 1 µM, first compound 3.16 µM
[24] = second compound 1 µM, first compound 10 µM
[25] = second compound 3.16 µM, first compound 0.0316 µM
[26] = second compound 3.16 µM, first compound 0.1 µM
[27] = second compound 3.16 µM, first compound 0.316 µM
[28] = second compound 3.16 µM, first compound 1 µM
[29] = second compound 3.16 µM, first compound 3.16 µM
[30] = second compound 3.16 µM, first compound 10 µM
[31] = second compound 10 µM, first compound 0.0316 µM
[32] = second compound 10 µM, first compound 0.1 µM
[33] = second compound 10 µM, first compound 0.316 µM
[34] = second compound 10 µM, first compound 1 µM
[35] = second compound 10 µM, first compound 3.16 µM
[36] = second compound 10 µM, first compound 10 µM
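Further: spheroids exposed to compounds for 7 days before readout.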
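Wherever viability, T/C is given: percent of vehicle DMSO control viability with 100% = untreated-like growth.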

CC1COCCN1c1cc(-c2ccnn2C)c2ccnc(-c3ccn[nH]3)c2n1 (centres undefined) + Cc1cnc(CNC(=O)c2c(=O)c3ccc(N4CCCN(C)CC4)nc3n3c2sc2ccccc23)cn1
IC50 (second compound 0.0316 µM): 97.4 nM
IC50 (second compound 0.1 µM): 76.9 nM
IC50 (second compound 0.316 µM): < 31.6 nM
IC50 (second compound 1 µM): < 31.6 nM
IC50 (second compound 3.16 µM): < 31.6 nM
IC50 (second compound 10 µM): < 31.6 nM
viability, T/C [1]: 97%
viability, T/C [2]: 46.1%
viability, T/C [3]: 36%
viability, T/C [4]: 27.8%
viability, T/C [5]: 24.1%
viability, T/C [6]: 21.2%
viability, T/C [7]: 65.8%
viability, T/C [8]: 43.5%
viability, T/C [9]: 34.4%
viability, T/C [10]: 25.5%
viability, T/C [11]: 23.7%
viability, T/C [12]: 16.2%
viability, T/C [13]: 41.9%
viability, T/C [14]: 40.9%
viability, T/C [15]: 36.1%
viability, T/C [16]: 26.2%
viability, T/C [17]: 21.5%
viability, T/C [18]: 18.4%
viability, T/C [19]: 40.4%
viability, T/C [20]: 32%
viability, T/C [21]: 26.8%
viability, T/C [22]: 26.2%
viability, T/C [23]: 23.5%
viability, T/C [24]: 16.3%
viability, T/C [25]: 35.4%
viability, T/C [26]: 32.8%
viability, T/C [27]: 25.4%
viability, T/C [28]: 22.8%
viability, T/C [29]: 21.1%
viability, T/C [30]: 15.8%
viability, T/C [31]: 26.9%
viability, T/C [32]: 22.5%
viability, T/C [33]: 27.1%
viability, T/C [34]: 23%
viability, T/C [35]: 21.5%
viability, T/C [36]: 15.6%

CC1COCCN1c1cc(C2(O)CC3CCC(C2)O3)c2cnn(-c3ccn[nH]3)c2n1 (centres undefined) + Cc1cnc(CNC(=O)c2c(=O)c3ccc(N4CCCN(C)CC4)nc3n3c2sc2ccccc23)cn1
IC50 (second compound 0.0316 µM): 134 nM
IC50 (second compound 0.1 µM): 73.9 nM
IC50 (second compound 0.316 µM): < 31.6 nM
IC50 (second compound 1 µM): < 31.6 nM
IC50 (second compound 3.16 µM): < 31.6 nM
IC50 (second compound 10 µM): < 31.6 nM
viability, T/C [1]: 96.4%
viability, T/C [2]: 49.5%
viability, T/C [3]: 39.7%
viability, T/C [4]: 24.6%
viability, T/C [5]: 20.5%
viability, T/C [6]: 12.6%
viability, T/C [7]: 71.9%
viability, T/C [8]: 41.3%
viability, T/C [9]: 27.6%
viability, T/C [10]: 26.8%
viability, T/C [11]: 21.8%
viability, T/C [12]: 15.1%
viability, T/C [13]: 50.1%
viability, T/C [14]: 34.8%
viability, T/C [15]: 28.8%
viability, T/C [16]: 22.9%
viability, T/C [17]: 17.7%
viability, T/C [18]: 15%
viability, T/C [19]: 42%
viability, T/C [20]: 25.9%
viability, T/C [21]: 28.7%
viability, T/C [22]: 23.1%
viability, T/C [23]: 21.8%
viability, T/C [24]: 14.3%
viability, T/C [25]: 33.6%
viability, T/C [26]: 23.4%
viability, T/C [27]: 23.8%
viability, T/C [28]: 21.7%
viability, T/C [29]: 18.6%
viability, T/C [30]: 10.6%
viability, T/C [31]: 32.8%
viability, T/C [32]: 20.1%
viability, T/C [33]: 22.2%
viability, T/C [34]: 18%
viability, T/C [35]: 17%
viability, T/C [36]: 0.6%
